Assay results: US11053204B2, “Pyrimidinyloxy benzene derivatives as herbicides” (FMC Corporation, priority 2015, dated 2021)

Legend:
Experiment in all cases: Test C postemergence, plant response rating
Format in all cases: in vivo
[1] = test system: lambsquarters (Chenopodium album); conditions: Chenopodium album, post-emergence
How it was run: (§1)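 Visual injury score, 0 = no effect, 100 = complete control, assigned against untreated controls after 13 to 15 d in the greenhouse. Compounds were applied in a surfactant-containing non-phytotoxic solvent mix, preemergence to seeded loam/sand or silt loam soil, or postemergence to 1- to 4-leaf plants (2 to 18 cm).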

[2] = test system: corn (Zea mays); conditions: Zea mays, post-emergence
How it was run: as §1

[3] = test system: velvetleaf (Abutilon theophrasti); conditions: Abutilon theophrasti, post-emergence
How it was run: as §1

[4] = test system: oilseed rape (Brassica napus); conditions: Brassica napus, post-emergence
How it was run: as §1

[5] = test system: waterhemp (common waterhemp, Amaranthus rudis); conditions: for Plant response rating, Waterhemp: scale 0 to 100; for Waterhemp plant response rating: scale 0 to 100 (0 no effect, 100 complete control)
How it was run: as §1

[6] = test system: foxtail, giant (giant foxtail, Setaria faberii); conditions: Setaria faberi, post-emergence
How it was run: as §1

[7] = test system: blackgrass (Alopecurus myosuroides); conditions: Alopecurus myosuroides, post-emergence
How it was run: as §1

[8] = test system: ragweed (common ragweed, Ambrosia elatior); conditions: Ambrosia artemisiifolia, post-emergence
How it was run: as §1

[9] = test system: chickweed (common chickweed, Stellaria media); conditions: Stellaria media, post-emergence
How it was run: as §1

[10] = test system: morningglory (Ipomoea coccinea); conditions: Ipomoea, post-emergence
How it was run: as §1

[11] = test system: kochia (Kochia scoparia); conditions: Bassia scoparia, post-emergence
How it was run: as §1

[12] = test system: soybean (Glycine max); conditions: Glycine max, post-emergence
How it was run: as §1

[13] = test system: galium (catchweed bedstraw, Galium aparine); conditions: Galium, post-emergence
How it was run: as §1

[14] = test system: nutsedge, yellow (yellow nutsedge, Cyperus esculentus); conditions: Cyperus, post-emergence
How it was run: as §1

[15] = test system: oat, wild (wild oat Avena fatua); conditions: Avena fatua, post-emergence
How it was run: as §1

[16] = test system: wheat (winter wheat, Triticum aestivum); conditions: Triticum aestivum, post-emergence
How it was run: as §1

[17] = 62 g ai/ha, scale 0 to 100 (0 no effect, 100 complete control)
[18] = 125 g ai/ha, scale 0 to 100 (0 no effect, 100 complete control)

C=CCOC(=O)c1c(Br)cccc1Oc1ncc(Cl)cn1 [Compound 22, 2-propen-1-yl 2-bromo-6-[(5-chloro-2-pyrimidinyl)oxy]benzoate]
50%: pest or weed control at 16 g/ha ([3]; 16 g ai/ha, scale 0 to 100) | pest or weed control at 62 g/ha [8, 17] | pest or weed control at 125 g/ha [8, 18] | pest or weed control at 125 g/ha [10, 18] | pest or weed control at 16 g/ha ([11]; 16 g ai/ha, scale 0 to 100) | pest or weed control at 125 g/ha [11, 18]
35%: plant injury at 16 g/ha ([4]; 16 g ai/ha, scale 0 to 100) | pest or weed control at 31 g/ha ([8]; 31 g ai/ha, scale 0 to 100) | pest or weed control at 62 g/ha [10, 17] | plant injury at 62 g/ha [12, 17]
40%: pest or weed control at 31 g/ha ([3]; 31 g ai/ha, scale 0 to 100) | plant injury at 31 g/ha ([4]; 31 g ai/ha, scale 0 to 100) | plant injury at 16 g/ha ([12]; 16 g ai/ha, scale 0 to 100) | plant injury at 31 g/ha ([12]; 31 g ai/ha, scale 0 to 100)
10%: pest or weed control at 16 g/ha ([6]; 16 g ai/ha, scale 0 to 100) | pest or weed control at 31 g/ha ([6]; 31 g ai/ha, scale 0 to 100) | pest or weed control at 31 g/ha ([10]; 31 g ai/ha, scale 0 to 100) | pest or weed control at 16 g/ha ([13]; 16 g ai/ha, scale 0 to 100)
0%: pest or weed control at 16 g/ha ([7]; 16 g ai/ha, scale 0 to 100) | pest or weed control at 31 g/ha ([7]; 31 g ai/ha, scale 0 to 100) | pest or weed control at 62 g/ha [7, 17] | pest or weed control at 16 g/ha ([14]; 16 g ai/ha, scale 0 to 100) | pest or weed control at 31 g/ha ([14]; 31 g ai/ha, scale 0 to 100) | pest or weed control at 16 g/ha ([15]; 16 g ai/ha, scale 0 to 100) | pest or weed control at 31 g/ha ([15]; 31 g ai/ha, scale 0 to 100) | pest or weed control at 62 g/ha [15, 17] | plant injury at 16 g/ha ([16]; 16 g ai/ha, scale 0 to 100) | plant injury at 31 g/ha ([16]; 31 g ai/ha, scale 0 to 100) | plant injury at 62 g/ha ([16]; 62 g ai/ha, scale 0 to 100 (0 no effect, 100 complete control), read-out: Wheat plant response rating) | plant injury at 125 g/ha [16, 18]
15%: plant injury at 125 g/ha [2, 18] | pest or weed control at 62 g/ha [6, 17]
55%: pest or weed control at 62 g/ha ([3]; 62 g ai/ha, scale 0 to 100 (0 no effect, 100 complete control), read-out: Velvetleaf plant response rating) | plant injury at 62 g/ha [4, 17]
75%: pest or weed control at 125 g/ha [1, 18] | plant injury at 125 g/ha [12, 18]
85: Waterhemp plant response rating ([5]; 62 g ai/ha)
80%: plant injury at 125 g/ha [4, 18] | pest or weed control at 31 g/ha ([11]; 31 g ai/ha, scale 0 to 100)
20%: pest or weed control at 16 g/ha ([9]; 16 g ai/ha, scale 0 to 100)
25%: pest or weed control at 125 g/ha [6, 18] | pest or weed control at 31 g/ha ([13]; 31 g ai/ha, scale 0 to 100)
75: Plant response rating, Waterhemp ([5]; 16 g ai/ha) | Plant response rating, Waterhemp ([5]; 31 g ai/ha)
70%: pest or weed control at 31 g/ha ([1]; 31 g ai/ha, scale 0 to 100) | pest or weed control at 62 g/ha [1, 17] | pest or weed control at 125 g/ha [13, 18]
5%: Corn plant response rating (crop injury, 0 = no effect, 100 = complete kill) at 16 g/ha ([2]; 16 g ai/ha, scale 0 to 100) | Corn plant response rating (crop injury, 0 = no effect, 100 = complete kill) at 31 g/ha ([2]; 31 g ai/ha, scale 0 to 100) | plant injury at 62 g/ha [2, 17] | pest or weed control at 125 g/ha [7, 18] | pest or weed control at 16 g/ha ([8]; 16 g ai/ha, scale 0 to 100) | pest or weed control at 16 g/ha ([10]; 16 g ai/ha, scale 0 to 100) | pest or weed control at 62 g/ha [14, 17] | pest or weed control at 125 g/ha [14, 18] | pest or weed control at 125 g/ha [15, 18]
85%: pest or weed control at 125 g/ha [3, 18] | pest or weed control at 62 g/ha [11, 17]
60%: pest or weed control at 31 g/ha ([9]; 31 g ai/ha, scale 0 to 100) | pest or weed control at 125 g/ha [9, 18] | pest or weed control at 62 g/ha [13, 17]
80: Waterhemp plant response rating ([5]; 125 g ai/ha)
65%: pest or weed control at 16 g/ha ([1]; 16 g ai/ha, scale 0 to 100) | pest or weed control at 62 g/ha [9, 17]
